Source: publication PMC3368506 (Journal of the American Chemical Society, 2012)
Read-outs that look alike come from different tables or passages of the source.

How the values were obtained:
Cu^2+–Aβ42 species = Cu^2+–Aβ42 species (Homo sapiens, UniProt P05067); assay: H2O2 production, HRP/Amplex Red assay; format: biochemical; settings: reducing conditions (sodium ascorbate)
Neuro2A (N2A) cells = assay: Cytotoxicity, Alamar Blue cell viability assay; format: cell-based, Mouse
[1] = 1:1 metal:ligand, 50 μM each, ref [78], cited from earlier work
[2] = pH 7.4; 1:1 metal:ligand, 50 μM each; ref [78]; cited from earlier work

Cu^2+–Aβ42 species, sequence (P05067 672-713 limits assumed): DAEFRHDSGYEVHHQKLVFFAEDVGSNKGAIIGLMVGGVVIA

c1cnc2c(c1)ccc1cccnc12 [phen, phenanthroline]
Reduction of H2O2 production by Cu–Aβ42 species (Cu^2+–Aβ42 species): almost no effect

Oc1c(I)cc(Cl)c2cccnc12 [CQ, clioquinol]
Reduction of H2O2 production by Cu–Aβ42 species (Cu^2+–Aβ42 species): almost no effect
Cell survival, disaggregation conditions (Neuro2A (N2A) cells; Aβ42 fibrils 20 μM + compound 2 μM + Cu^2+ 20 μM): marked cell toxicity
Cell survival (Neuro2A (N2A) cells; concentrations >2 μM): < 30%

O=C(O)CN(CCN(CC(=O)O)CC(=O)O)CCN(CC(=O)O)CC(=O)O [DTPA, diethylenetriaminepentaacetic acid]
pCu (−log[Cu^2+]free) ([1]; pH 6.6): 9.7
pCu (−log[Cu^2+]free) ([1]; pH 7.4): 10.7
pZn (−log[Zn^2+]free) [2]: 9.3

O=C(O)CN(CCN(CC(=O)O)CC(=O)O)CC(=O)O [EDTA, ethylenediaminetetraacetic acid]
Cell survival (Neuro2A (N2A) cells; up to 20 μM concentration): 90–95%

CN(Cc1ccccn1)Cc1ccccn1 [L*, N-methyl-N,N-bis(2-pyridylmethyl)amine]
Reduction of H2O2 production by Cu–Aβ42 species (Cu^2+–Aβ42 species): dramatic reduction
